Test results reported in ChEMBL document CHEMBL6078723, “Novel steroidal β-carboline derivatives as promising antibacterial candidates against methicillin-resistant Staphylococcus aureus” (Eur J Med Chem, 2025).
The source made the active and inactive calls. No cut-off for these calls is given here.

Assays:
[1] = tested on: Staphylococcus aureus; assay: Antibacterial activity against Staphylococcus aureus CGMCC1.8721 in presence of phosphatidylcholine; assay type: functional, organism-based
[2] = tested on: Staphylococcus aureus; assay: Bactericidal activity against Staphylococcus aureus CGMCC1.8721 at 4 to 8 times MIC incubated for 0.5 to 1 hr by time kill assay relative to control; assay type: functional; settings: time 0.5-1 hrs
[3] = tested on: Staphylococcus aureus; assay: Induction of morphological change in Staphylococcus aureus CGMCC1.8721 assessed as appearance of atrophy at MIC by […] SEM analysis; assay type: functional, organism-based
[4] = tested on: Staphylococcus aureus; assay: Antibacterial activity against Staphylococcus aureus CGMCC1.8721 in presence of Na+ (reference value: 0.5 ug/ml); assay type: functional
[5] = tested on: Staphylococcus aureus; assay: Antibacterial activity against methicillin-resistant Staphylococcus aureus ATCC 33591 in presence of Mg2+ (reference value: 1 ug/ml); assay type: functional
[6] = tested on: Staphylococcus aureus; assay: Antibacterial activity against Staphylococcus aureus CGMCC1.8721 in presence of ATP; assay type: functional, organism-based
[7] = tested on: Staphylococcus aureus; assay: Antibacterial activity against methicillin-resistant Staphylococcus aureus ATCC 43300 in presence of Mg2+ (reference value: 0.5 ug/ml); assay type: functional
[8] = tested on: Staphylococcus aureus; assay: Induction of ROS accumulation in Staphylococcus aureus CGMCC1.8721 by DCFH-DA dye based analysis; assay type: functional, organism-based
[9] = tested on: Staphylococcus aureus; assay: Antibacterial activity against Staphylococcus aureus CGMCC1.8721 at pH 8 (reference value: 0.5 ug/ml); assay type: functional
[10] = tested on: Staphylococcus aureus; assay: Antibacterial activity against methicillin-resistant Staphylococcus aureus ATCC 43300 in presence of Na+ (reference value: 0.5 ug/ml); assay type: functional
[11] = tested on: Staphylococcus aureus; assay: Antibacterial activity against methicillin-resistant Staphylococcus aureus CGMCC1.12409 infected in mouse model assessed as reduction in abscesses in subcutaneous tissues at 10 mg/kg measured for 5 days; assay type: functional, organism-based; settings: time 5.0 day
[12] = tested on: Staphylococcus aureus; assay: Antibacterial activity against methicillin-resistant Staphylococcus aureus ATCC 33591 in presence of Fe3+ (reference value: 1 ug/ml); assay type: functional
[13] = tested on: Staphylococcus aureus; assay: Antibacterial activity against methicillin-resistant Staphylococcus aureus CGMCC1.12409 infected in mouse model assessed as reduction in skin lession in subcutaneous tissues at 10 mg/kg measured for 5 days; assay type: functional, organism-based; settings: time 5.0 day
[14] = tested on: Staphylococcus aureus; assay: Antibacterial activity against methicillin-resistant Staphylococcus aureus CGMCC1.12409 at pH 6.5 (reference value: 0.5 ug/ml); assay type: functional
[15] = tested on: Staphylococcus aureus; assay: Antibacterial activity against methicillin-resistant Staphylococcus aureus CGMCC1.12409 in presence of Fe2+ (reference value: 0.5 ug/ml); assay type: functional
[16] = tested on: Staphylococcus aureus; assay: Antibacterial activity against methicillin-resistant Staphylococcus aureus ATCC 43300 in presence of Ca2+ (reference value: 0.5 ug/ml); assay type: functional
[17] = tested on: Staphylococcus aureus; assay: Antibacterial activity against methicillin-resistant Staphylococcus aureus ATCC 43300; assay type: functional
[18] = tested on: Staphylococcus aureus; assay: Antibacterial activity against methicillin-resistant Staphylococcus aureus CGMCC1.12409 in presence of Mg2+ (reference value: 0.5 ug/ml); assay type: functional
[19] = tested on: Staphylococcus aureus; assay: Antibacterial activity against methicillin-resistant Staphylococcus aureus ATCC 33591 in presence of Fe2+ (reference value: 1 ug/ml); assay type: functional
[20] = tested on: HeLa; assay: Cytotoxicity against human HeLa cells at 40 uM by CCK8 assay relative to control; assay type: toxicity, cell-based
[21] = tested on: Staphylococcus aureus; assay: Inhibition of metabolic activity in Staphylococcus aureus CGMCC1.8721; assay type: functional, organism-based
[22] = tested on: Staphylococcus aureus; assay: Antibacterial activity against Staphylococcus aureus CGMCC1.8721 in presence of PGN; assay type: functional, organism-based
[23] = tested on: Staphylococcus aureus; assay: Antibacterial activity against Staphylococcus aureus CGMCC1.8721 in presence of Zn2+ (reference value: 0.5 ug/ml); assay type: functional
[24] = tested on: Staphylococcus aureus; assay: Antibacterial activity against methicillin-resistant Staphylococcus aureus CGMCC1.12409 at pH 8 (reference value: 0.5 ug/ml); assay type: functional
[25] = tested on: Staphylococcus aureus; assay: Antibacterial activity against methicillin-resistant Staphylococcus aureus CGMCC1.12409 infected in mouse model assessed as reduction in abscesses size at 5 to 10 mg/kg measured for 5 days; assay type: functional, organism-based; settings: dose 5-10 mg/kg, time 5.0 day
[26] = tested on: Staphylococcus aureus; assay: Induction of inner membrane permeability in Staphylococcus aureus CGMCC1.8721 assessed as increase in red fluorescence intensity by PI staining based analysis; assay type: functional, organism-based
[27] = tested on: Staphylococcus aureus; assay: Antibacterial activity against methicillin-resistant Staphylococcus aureus ATCC 43300 at 37.5 degreeC (reference value: 0.5 ug/ml); assay type: functional
[28] = tested on: Staphylococcus aureus; assay: Bactericidal activity against methicillin-resistant Staphylococcus aureus ATCC 33591 by CLSI based method; assay type: functional
[29] = tested on: Staphylococcus aureus; assay: Antibacterial activity against Staphylococcus aureus CGMCC1.8721 in presence of phosphatidylglycerol; assay type: functional, organism-based
[30] = tested on: Staphylococcus aureus; assay: Antibiofilm activity against Staphylococcus aureus CGMCC1.8721 at 4 times MIC by crystal violet staining based analysis relative to control; assay type: functional
[31] = tested on: Staphylococcus aureus; assay: Induction of morphological change in Staphylococcus aureus CGMCC1.8721 assessed as depression of cell surface at 4 times MIC by […] SEM analysis; assay type: functional, organism-based
[32] = tested on: Staphylococcus aureus; assay: Antibacterial activity against methicillin-resistant Staphylococcus aureus CGMCC1.12409 infected in mouse model assessed as reduction in bacterial clones at 5 to 10 mg/kg measured for 5 days; assay type: functional, organism-based; settings: dose 5-10 mg/kg, time 5.0 day
[33] = Selectivity index, ratio of HC50 for hemolytic activity in rabbit RBC to MIC for antibacterial activity against Staphylococcus aureus; assay type: toxicity, cell-based; settings: rabbit red blood cells
[34] = tested on: Staphylococcus aureus; assay: Antibacterial activity against methicillin-resistant Staphylococcus aureus CGMCC1.12409 in presence of Ca2+ (reference value: 0.5 ug/ml); assay type: functional
[35] = tested on: Staphylococcus aureus; assay: Antibacterial activity against methicillin-resistant Staphylococcus aureus ATCC 43300 in presence of H2PO4- (reference value: 0.5 ug/ml); assay type: functional
[36] = tested on: Staphylococcus aureus; assay: Antibacterial activity against methicillin-resistant Staphylococcus aureus ATCC 43300 at pH 8 (reference value: 0.5 ug/ml); assay type: functional
[37] = tested on: Staphylococcus aureus; assay: Antibacterial activity against methicillin-resistant Staphylococcus aureus ATCC 43300 in presence of Zn2+ (reference value: 0.5 ug/ml); assay type: functional
[38] = tested on: Staphylococcus aureus; assay: Antibacterial activity against methicillin-resistant Staphylococcus aureus ATCC 33591 in presence of H2PO4- (reference value: 1 ug/ml); assay type: functional
[39] = tested on: Staphylococcus aureus; assay: Antibacterial activity against methicillin-resistant Staphylococcus aureus ATCC 33591 in presence of Zn2+ (reference value: 1 ug/ml); assay type: functional
[40] = tested on: Staphylococcus aureus; assay: Antibacterial activity against methicillin-resistant Staphylococcus aureus ATCC 33591 in presence of Na+ (reference value: 1 ug/ml); assay type: functional
[41] = tested on: Staphylococcus aureus; assay: Antibacterial activity against Staphylococcus aureus CGMCC1.8721 in presence of Ca2+ (reference value: 0.5 ug/ml); assay type: functional
[42] = tested on: Staphylococcus aureus; assay: Antibacterial activity against methicillin-resistant Staphylococcus aureus CGMCC1.12409 infected in mouse model assessed as reduction in neutrophils in skin tissues at 5 to 10 mg/kg measured for 5 days by H and E staining based analysis; assay type: functional, organism-based; settings: dose 5-10 mg/kg, time 5.0 day
[43] = tested on: Staphylococcus aureus; assay: Antibacterial activity against methicillin-resistant Staphylococcus aureus ATCC 43300 at pH 6.5 (reference value: 0.5 ug/ml); assay type: functional
[44] = tested on: Staphylococcus aureus; assay: Antibacterial activity against Staphylococcus aureus CGMCC1.8721 at 37.5 degreeC (reference value: 0.5 ug/ml); assay type: functional

COc1ccc2[nH]c3c(CC[C@H](C)[C@H]4CC[C@H]5[C@@H]6[C@H](O)C[C@@H]7C[C@H](O)CC[C@]7(C)[C@H]6C[C@H](O)[C@]45C)[n+](Cc4ccc(Cl)cc4)ccc3c2c1.[Br-]
Activity [1]: Active | Activity [2]: 100% | Activity [3]: Active | MIC [4]: 0.5 µg/mL | MIC [5]: 1 µg/mL | Activity [6]: Active | MIC [7]: 0.5 µg/mL | Activity [8]: Dose-dependent-effect | MIC [9]: 0.5 µg/mL | MIC [10]: 0.5 µg/mL | Activity [11]: Active | MIC [12]: 1 µg/mL | Activity [13]: Active | MIC [14]: 1 µg/mL | MIC [15]: 1 µg/mL | MIC [16]: 0.5 µg/mL | MIC [17]: 0.5 µg/mL | MIC [18]: 1 µg/mL | MIC [19]: 1 µg/mL | Activity [20]: Non-toxic | inhibition [21]: Dose-dependent-effect | Activity [22]: Active | MIC [23]: 0.5 µg/mL | MIC [24]: 1 µg/mL | Activity [25]: Active | Activity [26]: Dose-dependent-effect | MIC [27]: 0.5 µg/mL | MBC [28]: 2 µg/mL | Activity [29]: inactive | Activity [30]: ~87% | Activity [31]: Active | Activity [32]: Active | selectivity ratio [33]: > 256 | MIC [34]: 1 µg/mL | MIC [35]: 0.5 µg/mL | MIC [36]: 0.5 µg/mL | MIC [37]: 0.5 µg/mL | MIC [38]: 1 µg/mL | MIC [39]: 1 µg/mL | MIC [40]: 1 µg/mL | MIC [41]: 0.5 µg/mL | Activity [42]: Active | MIC [43]: 0.5 µg/mL | MIC [44]: 0.5 µg/mL
